Experimental data published in patent US10781183B2, “Small molecule inducers of reactive oxygen species and inhibitors of mitochondrial activity” (The Regents of the University of Michigan, priority 2016, dated 2020).
Where two headings read alike, the source gives them in different places.

Assays:
MiaPaCa-2 cells = experiment: MTT cytotoxicity assay, MiaPaCa-2; type: cell-based; conditions: Homo sapiens, MTT assay, Mean ± SD, three independent experiments
Description: (§1) MiaPaCa-2, Panc-1 and BxPC-3 pancreatic cancer cell lines were obtained from the ATCC. Normal pancreatic cells HPDE and HPNE were kindly provided (Translational Oncology Program, University of […], Ann Arbor, Mich.). Gemcitabine resistant cell line MiaPaCa-2-GR (gemcitabine resistant) was kindly provided (Department of Pathology, Wayne State University, Detroit, Mich.). All cell lines were cultured as monolayer and maintained in RPMI1640 supplemented with 10% fetal bovine serum (FBS) in a humidified atmosphere with 5% CO2 at 37° C. MiaPaCa-2-GR culture was supplemented with 200 nM gemcitabine.
(§2) Cytotoxicity of compounds was evaluated with 3-(4,5-dimethylthiazol-2-yl)-2,5-diphenyltetrazolium bromide (MTT) assay. Cells were placed in 96-well plate at 3000-8000 cells/well. After overnight attachment, compounds were added to the wells at sequential dilutions (30 nM-10 μM for most cell lines). After 72 h treatment, MTT was added into the media to a final concentration of 300 μg/mL. Cells were incubated for 3 h at 37° C., and the insoluble formazan converted by viable cells were dissolved in 150 μL of DMSO. Absorbance at 570 nm was read by microplate reader (Molecular devices, Sunnyvale, Calif.), and inhibition of cell proliferation was calculated using the following formula: Inhibition of cell proliferation (%)=(1−ODtreatment/ODcontrol)×100%

BxPC-3 cells = experiment: MTT cytotoxicity assay, BxPC-3; type: cell-based; conditions: Homo sapiens, three independent experiments
Description: as §1, §2

Panc-1 cells = experiment: MTT cytotoxicity assay, Panc-1; type: cell-based; conditions: Homo sapiens, three independent experiments
Description: as §1, §2

[1] = MIA PaCa-2, 72 h, Table 1, 72 h
[2] = MIA PaCa-2, Table 2, read-out: IC 50 MiaPaCa-2
[3] = BXPC-3, 72 h, Table 1, 72 h, Mean ± SD
[4] = BXPC-3, Table 2, Mean ± SD, read-out: IC 50 BxPC-3
[5] = PANC-1, 72 h, Table 1, 72 h, Mean ± SD
[6] = PANC-1, Table 2, Mean ± SD, read-out: IC 50 Panc-1

melting point	Structure (SMILES)	IC50 (MiaPaCa-2 cells; [1])	IC50 (MiaPaCa-2 cells; [2])	IC50 (BxPC-3 cells; [3])	IC50 (BxPC-3 cells; [4])	IC50 (Panc-1 cells; [5])	IC50 (Panc-1 cells; [6])
> 320 °C	O=C1C=CC(=O)c2ncncc21 [QD323, quinazoline-5,8-dione]						
169 to 171 °C	O=C1C(Nc2ccc(Oc3ccccc3)cc2)=CC(=O)c2ncncc21 [QD324, 6-((4-phenoxyphenyl)amino)quinazoline-5,8-dione]	3.7 ± 0.7 µM	3.7 ± 0.7 µM	3.6 ± 0.4 µM	3.6 ± 0.4 µM	1.8 ± 0.2 µM	1.8 ± 0.2 µM
114 °C	O=C1C(Nc2ccc(OC(F)(F)F)cc2)=CC(=O)c2ncncc21 [QD327, 6-((4-(trifluoromethoxy)phenyl)amino)quinazoline-5,8-dione]	1.4 ± 0.2 µM	1.4 ± 0.2 µM	0.9 ± 0.1 µM	0.9 ± 0.1 µM	0.9 ± 0.1 µM	0.9 ± 0.1 µM
> 320 °C	NS(=O)(=O)c1ccc(NC2=CC(=O)c3ncncc3C2=O)cc1 [QD328, 4-((5,8-dioxo-5,8-dihydroquinazolin-6-yl)amino)benzenesulfonamide]	> 10 µM	> 10 µM	> 10 µM	> 10 µM	> 10 µM	> 10 µM
	O=C1C(Nc2ccc(CO)cc2)=CC(=O)c2ncncc21 [QD329, 6-((4-(hydroxymethyl)phenyl)amino)quinazoline-5,8-dione]	3.5 ± 1.3 µM	3.5 ± 1.3 µM	2.7 ± 0.3 µM	5.7 ± 0.3 µM	1 ± 0.2 µM	1 ± 0.2 µM
> 320 °C	NC(=O)c1ccc(NC2=CC(=O)c3ncncc3C2=O)cc1 [QD330, 4-((5,8-dioxo-5,8-dihydroquinazolin-6-yl)amino)benzamide]	8 ± 0.9 µM	8 ± 0.9 µM	> 10 µM	> 10 µM	6.3 ± 0.3 µM	6.3 ± 0.3 µM
226 to 230 °C	COC(=O)c1ccc(NC2=CC(=O)c3ncncc3C2=O)cc1 [QD331, Methyl 4-((5,8-dioxo-5,8-dihydroquinazolin-6-yl)amino)benzoate]	2.2 ± 0.4 µM	2.2 ± 0.4 µM	5.8 ± 0.3 µM	5.8 ± 0.3 µM	1.1 ± 0.4 µM	1.1 ± 0.4 µM
206 to 207 °C	CCOC(=O)c1ccc(NC2=CC(=O)c3ncncc3C2=O)cc1 [QD332, Ethyl 4-((5,8-dioxo-5,8-dihydroquinazolin-6-yl)amino)benzoate]	5.5 ± 1.5 µM	5.5 ± 1.5 µM	5.9 ± 0.1 µM	5.9 ± 0.1 µM	1.6 ± 0.3 µM	1.6 ± 0.3 µM
208 to 210 °C	O=C1C(Nc2cccc(B(O)O)c2)=CC(=O)c2ncncc21 [QD333, (3-((5,8-dioxo-5,8-dihydroquinazolin-6-yl)amino)phenyl)boronic acid]	> 10 µM	> 10 µM	> 10 µM	> 10 µM	9 ± 1 µM	9 ± 1 µM
285 to 289 °C	O=C1C(Nc2ccc(-c3ccc(F)cc3)cc2)=CC(=O)c2ncncc21 [QD334, 6-((4′-fluoro-[1,1′-biphenyl]-4-yl)amino)quinazoline-5,8-dione]	3.5 ± 1 µM	3.5 ± 1 µM	4.4 ± 0.9 µM	4.4 ± 0.9 µM	3.2 ± 0.8 µM	3.2 ± 0.8 µM
270 to 272 °C	COc1ccc(-c2ccc(NC3=CC(=O)c4ncncc4C3=O)cc2)cc1 [QD336, 6-((4′-methoxy[1,1′-biphenyl]-4-yl)amino)quinazoline-5,8-dione]	2.1 ± 0.5 µM	2.1 ± 0.5 µM	3.5 ± 0.5 µM	3.5 ± 0.5 µM	2.3 ± 0.3 µM	2.3 ± 0.3 µM
> 320 °C	Nc1ccc(-c2ccc(NC3=CC(=O)c4ncncc4C3=O)cc2)cc1 [QD337, 6-((4′-amino-[1,1′-biphenyl]-4-yl)amino)quinazoline-5,8-dione]	2.5 ± 0.2 µM	2.5 ± 0.2 µM	3.5 ± 0.6 µM	3.5 ± 0.6 µM	3.7 ± 0.1 µM	3.7 ± 0.1 µM
282 to 283 °C	Cc1ccc(-c2ccc(NC3=CC(=O)c4ncncc4C3=O)cc2F)cc1 [QD338, 6-((2-fluoro-4′-methyl-[1,1′-biphenyl]-4-yl)amino)quinazoline-5,8-dione]	4.6 ± 1.1 µM	4.6 ± 1.1 µM	5 ± 0.7 µM	5 ± 0.7 µM	4.8 ± 0.1 µM	4.8 ± 0.1 µM
203 to 205 °C	Nc1ccc(C(=O)NCCC[P+](c2ccccc2)(c2ccccc2)c2ccccc2)cc1.[Br-] [QD339, (3-(4-aminobenzamido)propyl) triphenylphosphonium bromide]		> 30 µM		> 30 µM	> 30 µM	> 30 µM
	O=C(NCCC[P+](c1ccccc1)(c1ccccc1)c1ccccc1)c1ccc(NC2=CC(=O)c3ncncc3C2=O)cc1 [QD340, (3-(4-((5,8-dioxo-5,8-dihydroquinazolin-6-yl)amino)benzamido)propyl) triphenylphosphonium bromide]	15.3 ± 2.5 µM	15.3 ± 2.5 µM	21.5 ± 2.3 µM	21.5 ± 2.3 µM	11.7 ± 1.5 µM	11.7 ± 1.5 µM
